# Reference: patent publication US7615554B2, “Erastin and erastin binding proteins, and uses thereof” (Prolexys Pharmaceuticals, Inc., priority 2005, dated 2009)
# Key:
# engineered cell lines = assay: Selectivity across the engineered cell lines (calcein AM IC50 ratios); format: cell-based, human; settings: from selectivity ratio for each subsequent pair of cell lines in a series
# Description: To calculate this selectivity score between two cell lines, the IC50 for a compound in one cell line was divided by the IC50 for the same compound in a second cell line. […] The “tumor selectivity score” was calculated for each compound, by dividing the IC50 value for the compound in the parental, primary BJ cells by the IC50 value for the compound in engineered BJ-TERTALT/ST/RAS^V12 cells, containing all four genetic elements required to create tumorigenic cells (Table 1).
# Applicants sought to determine the genetic basis of selectivity for each compound. That is, for each compound, they attempted to define the gene or combination of genes responsible for rendering cells sensitive to the compound (Table 1).
# The IC50 in primary BJ cells was divided by the IC50 in BJ-TERT/LT/ST/RAS^V12 tumorigenic cells to obtain a tumor selectivity ratio for each compound. The compound selectivity for each genetic element was determined by calculating the selectivity ratio for each subsequent pair of cell lines in a series.
# [1] = system: BJ-TERT/LT/ST/RAS^V12 cells; assay: Nuclear morphology assay; format: cell-based, human
# From the text: Applicants sought to characterize the type of cell death induced by CPT and erastin in tumorigenic BJ-TERT/LT/ST/RAS^V12 cells. […] To determine whether erastin or CPT induces apoptosis in their system, Applicants monitored the nuclear morphology of CPT- and erastin-treated tumorigenic cells using fluorescence microscopy. […] Since nuclear morphological change is required of apoptotic cells, Applicants conclude that cell death induced by erastin is non-apoptotic. […] Additionally, nuclei remained intact in erastin-treated tumor cells (FIG. 9).
# 200,000 tumorigenic BJ-TERT/LT/ST/RAS^V12 cells were seeded in 2 mL on glass coverslips in each well of a six-well dish, treated with nothing (NT), 9 μM erastin or 1.1 μM camptothecin (CPT) in growth medium for 18 hours while incubating at 37° C. with 5% CO2. Nuclei were stained with 25 μg/mL Hoechst 33342 (Molecular Probes) and viewed using an oil immersion 100× objective on a fluorescence microscope.
# [2] = system: BJ-TERT/LT/ST/RAS^V12 cells; assay: Western blot for active caspase-3; format: cell-based, human
# Description: BJ-TERT/LT/ST/RAS^V12 cells were seeded prior to the experiment at 5×10^5 cells in 60 mm dishes. The cells were treated with 5 μg/ml erastin (9 μM) for 2, 4, 6, 8 or 10 hours. One dish was maintained for camptothecin treatment (0.4 μlg/ml for 24 h) as a positive control. Cells were lysed after each time point in lysis buffer (50 mM HEPES KOH pH 7.4, […], 2 mM EDTA, 0.5% Triton X-100, 1.5 mM Na3VO4, 50 mM NaF, 10 mM sodium pyrophosphate, 10 mM sodium beta-glycerophosphate and protease inhibitor tablet (Roche)). Protein content was quantified using a Biorad protein assay reagent. Equal amounts of protein were resolved on 16% SDS-polyacrylamide gel. The electrophoresed proteins were transblotted onto a PVDF membrane, blocked with 5% milk and incubated with anti-active caspase-3 polyclonal antibody (BD Pharmingen) at 1:1500 dilution overnight at 4° C. The membrane was then incubated in anti-rabbit-HRP (Santa Cruz Biotechnology) at 1:3000 dilution for 1 hour and developed with an enhanced chemiluminescence mixture (NEN life science, Renaissance). To test for equivalent loading in each lane, blots were stripped, blocked, and probed with an anti-eIF-4E antibody (BD Transduction laboratories) at 1:1000 dilution.
# BJ primary cells [3] = assay: Calcein AM viability assay, BJ cells; format: cell-based, human; settings: 16-point two-fold dilution
# Description: (§1) Described here is work carried out to identify compounds with increased potency or activity in the presence of hTERT, LT, ST, E6, E7 or RAS^V12. Although the work described herein made use of hTERT, LT, ST, E6, E7 and RAS^V12 as transforming genes, future studies can make use of a wide variety of cancer-associated alleles using this methodology in order to define the signaling networks that involve many oncogenes and tumor suppressors. […] Cell viability was measured using the dye calcein acetoxymethyl ester (calcein AM) (Wang et al., 1993, Hum. Immunol. 37, 264-270), which is a non-fluorescent compound that freely diffuses into cells. […]
# (§2) Calcein acetoxylmethyl ester (AM) is a cell membrane-permeable, non-fluorescent compound that is cleaved by intracellular esterases to form the anionic, cell-impermeable, fluorescent compound calcein. […] Total fluorescence intensity in each well was recorded on a Packard Fusion platereader, and converted to a percent inhibition of signal by subtracting the instrument background and dividing by the average signal obtained when cells were not treated with any compound. […]
# (§3) Mean RFU (relative fluorescence units) for untreated cells was calculated by averaging columns 1, 2, and 23 (wells with cells but lacking compounds). The calcein background was calculated by averaging column 24 (wells with calcein, but lacking cells). […]
# BJ-TERT/LT/ST cells = assay: Calcein AM viability assay, BJ-TERT/LT/ST cells; format: cell-based, human; settings: 16-point two-fold dilution
# Description: as §1, §2, §3
# [4] = system: BJ-TERT/LT/ST/RAS^V12 tumorigenic cells; assay: Calcein AM viability assay, BJ-TERT/LT/ST/RAS^V12 cells; format: cell-based, human; settings: BJ-TERT/LT/ST/Ras^v12; 16-point two-fold dilution
# From the text: as §1, with “suppressors. Engineered cell lines with these genetic elements were used to screen 23,550 compounds, including 20,000 compounds from a combinatorial library, 1,990 compounds from the National Cancer Institute diversity collection, and 1,540 biologically active known compounds that were selected and purchased by Applicant and formatted into a screenable collection.” for “suppressors.”
# as §2
# as §3, with “cells). Percentage inhibition of each well was calculated as [1−(RFU−calcein control)/(untreated cell−calcein control)*100].” for “cells).”
# [5] = system: BJ-TERT/LT/RAS^V12/ST cells; assay: Calcein AM viability assay, BJ-TERT/LT/RAS^V12/ST cells; format: cell-based, human; settings: 16-point two-fold dilution
# Description: as §1, §2, §3
# TIP5-TERT cells = assay: Calcein AM viability assay, TIP5-TERT cells; format: cell-based, human; settings: 16-point two-fold dilution
# Description: as §1, §2, §3
# TIP5-TERT/LT cells = assay: Calcein AM viability assay, TIP5-TERT/LT cells; format: cell-based, human; settings: 16-point two-fold dilution
# Description: as §1, §2, §3
# [6] = system: TIP5-TERT/LT/ST/Ras^v12 cells; assay: Calcein AM viability assay, TIP5-TERT/LT/ST/Ras^v12 cells; format: cell-based, human; settings: 16-point two-fold dilution
# Description: as §1, §2, §3
# TIP5-TERT/E6E7 cells = assay: Calcein AM viability assay, TIP5-TERT/E6E7 cells; format: cell-based, human; settings: 16-point two-fold dilution
# Description: as §1, §2, §3
# TIP5-TERT/E6E7/ST cells = assay: Calcein AM viability assay, TIP5-TERT/E6E7/ST cells; format: cell-based, human; settings: 16-point two-fold dilution
# Description: as §1, §2, §3
# [7] = system: TIP5-TERT/E6E7/ST/Ras^v12 cells; assay: Calcein AM viability assay, TIP5-TERT/E6E7/ST/Ras^v12 cells; format: cell-based, human; settings: 16-point two-fold dilution
# Description: as §1, §2, §3
# BJ primary cells [8] = assay: Sensitization of BJ primary cells by co-treatment (calcein AM viability); format: cell-based, human
# From the text: (A-C) Western blot of lysates from BJ, BJ-TERT, BJ-TERT/LT/ST, BJ-TERT/LT/ST/RAS^V12, BJ-TERT/LT/RAS^V12 and BJ-TERT/LT/RAS^V12/ST cells with an antibody directed against topoisomerase II (A) or TOPI (B, C). In panel (C), cells were transfected with a siRNA directed against TOPI, lamic A/C or with a control double strand DNA duplex of the same length (TOPI dsDNA). In each case, the blot was probed with an antibody against eIF-4E to identify differences in the amount of protein loaded. The relative amount is quantitated below each band. (D) A TOPI siRNA prevents cell death caused by camptothecin in engineered tumor cells. Cell number was determined after transfection with a siRNA directed against TOPI and treatment with the indicated concentrations of camptothecin. (E) Okadaic acid, an inhibitor of PP2A and other cellular phosphatases, sensitizes primary human cells to camptothecin. BJ primary cells were treated simultaneously with the indicated concentrations of both camptothecin and okadaic acid and the effect on calcein AM viability staining was determined. […] BJ primary cells were treated with the indicated concentrations of okadaic acid and the expression level of TOPI was determined by western blot. The relative amount is quantitated below each band.
# The compounds in group (iii) are camptothecin (CPT) and a novel compound from a combinatorial library, which Applicants have named erastin, for eradicator of RAS and ST-expressing cells (FIG. 2). Efficient CPT-induced and erastin-induced cell death requires the presence of both ST and RAS^V12 (FIGS. 3 and 4 and Table 1). Although CPT and erastin have a similar genetic basis of selectivity, they have distinct mechanisms of action. CPT is partially active in cells lacking RB function (via expression of E7), whereas erastin is not, and CPT requires two days to cause death in BJ-TERT/LT/ST/RAS^V12 cells, while erastin is 100% effective within 18 hours (FIGS. 3 and 4). […]
# TOP1 = assay: Western blot for TOP1 expression in BJ primary cells; format: cell-based, human
# From the text: (A-C) Western blot of lysates from BJ, BJ-TERT, BJ-TERT/LT/ST, BJ-TERT/LT/ST/RAS^V12, BJ-TERT/LT/RAS^V12 and BJ-TERT/LT/RAS^V12/ST cells with an antibody directed against topoisomerase II (A) or TOPI (B, C). In panel (C), cells were transfected with a siRNA directed against TOPI, lamic A/C or with a control double strand DNA duplex of the same length (TOPI dsDNA). In each case, the blot was probed with an antibody against eIF-4E to identify differences in the amount of protein loaded. The relative amount is quantitated below each band. (D) A TOPI siRNA prevents cell death caused by camptothecin in engineered tumor cells. Cell number was determined after transfection with a siRNA directed against TOPI and treatment with the indicated concentrations of camptothecin. (E) Okadaic acid, an inhibitor of PP2A and other cellular phosphatases, sensitizes primary human cells to camptothecin. BJ primary cells were treated simultaneously with the indicated concentrations of both camptothecin and okadaic acid and the effect on calcein AM viability staining was determined. […] BJ primary cells were treated with the indicated concentrations of okadaic acid and the expression level of TOPI was determined by western blot. The relative amount is quantitated below each band. […]
# [9] = system: tumor cells versus normal cells; assay: Erastin analogs tested for activity and selectivity in tumor cells versus normal cells; format: cell-based
# From the text: Applicants additionally tested 135 analogs of erastin for activity and selectivity in tumor cells versus normal cells. […] This compound was named erastin B (see FIG. 8). In certain embodiments of the invention, the invention relates to the compound, erastin.
# Applicants additionally tested other analogs of erastin for activity and selectivity in tumor cells versus normal cells. […] This compound was named erastin B (see FIG. 8). BJELR cells are BJ-TERT/LT/ST/RAS^V12 cells, and BJEH are BJ-TERT cells.
compound,measurement,setting,value
CC[C@@]1(O)C(=O)OCc2c1cc1n(c2=O)Cc2cc3ccccc3nc2-1 [Camptothecin],Genetic basis of Selectivity,engineered cell lines,RAS^v12/PP2A/RB
same,nuclear morphology by fluorescence microscopy,"[1]; 9 μM erastin or 1.1 μM camptothecin, 18 hours",karyorhexis and margination of chromatin were clearly visible
same,fragmented nuclei,[1]; BJ-TERT/LT/ST/RAS^V12 cells,10-20 % of total nuclei
same,"cleaved, active caspase 3",[2],"appearance of cleaved, active caspase 3"
Cc1c2ccccc2c(CSC(=N)N)c2ccccc12.Cl [NSC146109],concentration required to achieve 50% inhibition of calcein AM staining (IC50),BJ primary cells [3],>5 µg/mL
same,concentration required to achieve 50% inhibition of calcein AM staining (IC50),BJ-TERT/LT/ST cells,2.5 µg/mL
same,concentration required to achieve 50% inhibition of calcein AM staining (IC50),[4],2.5 µg/mL
same,concentration required to achieve 50% inhibition of calcein AM staining (IC50),[5],2.5 µg/mL
same,concentration required to achieve 50% inhibition of calcein AM staining (IC50),TIP5-TERT cells,>5 µg/mL
same,concentration required to achieve 50% inhibition of calcein AM staining (IC50),TIP5-TERT/LT cells,>5 µg/mL
same,concentration required to achieve 50% inhibition of calcein AM staining (IC50),[6],2.5 µg/mL
same,concentration required to achieve 50% inhibition of calcein AM staining (IC50),TIP5-TERT/E6E7 cells,2.5 µg/mL
same,concentration required to achieve 50% inhibition of calcein AM staining (IC50),TIP5-TERT/E6E7/ST cells,2.5 µg/mL
same,concentration required to achieve 50% inhibition of calcein AM staining (IC50),[7],2.5 µg/mL
same,Genetic basis of Selectivity,engineered cell lines,non-specific
C=C1[C@@H](O)[C@@H]2O[C@]3(CC[C@H](/C=C/[C@@H](C)[C@@H]4CC(C)=C[C@@]5(O[C@H](C[C@@](C)(O)C(=O)O)CC[C@H]5O)O4)O3)CC[C@H]2O[C@@H]1[C@@H](O)C[C@H](C)[C@H]1O[C@@]2(CCCCO2)CC[C@H]1C [okadaic acid],sensitization to camptothecin,"BJ primary cells [8]; BJ (or BJ-TERT) cells, simultaneous treatment with camptothecin",renders BJ cells sensitive to camptothecin
same,sensitization to erastin,BJ primary cells [8]; BJ or BJ-TERT cells,does not render BJ or BJ-TERT cells sensitive to erastin
same,expression level of TOP1 by western blot,TOP1,stimulates expression of TOP1
erastin B,activity and selectivity of erastin analogs/derivatives,[9],"active and selective, but less potent than erastin"
